These results are taken from patent US9598424B2 (Takeda Pharmaceutical Company Limited, priority 2014, dated 2017).

The structures appear in SMILES notation.

The target of one test is T1, Full length human TBK1 (Homo sapiens, UniProt Q9UHD2).
T1 construct: Full length human TBK1 with an N-terminal His-tag; His-tag (N); made in house; host or cells: Sf9 insect cells (baculovirus, pFastBac1)
T1 sequence (Q9UHD2 1-729): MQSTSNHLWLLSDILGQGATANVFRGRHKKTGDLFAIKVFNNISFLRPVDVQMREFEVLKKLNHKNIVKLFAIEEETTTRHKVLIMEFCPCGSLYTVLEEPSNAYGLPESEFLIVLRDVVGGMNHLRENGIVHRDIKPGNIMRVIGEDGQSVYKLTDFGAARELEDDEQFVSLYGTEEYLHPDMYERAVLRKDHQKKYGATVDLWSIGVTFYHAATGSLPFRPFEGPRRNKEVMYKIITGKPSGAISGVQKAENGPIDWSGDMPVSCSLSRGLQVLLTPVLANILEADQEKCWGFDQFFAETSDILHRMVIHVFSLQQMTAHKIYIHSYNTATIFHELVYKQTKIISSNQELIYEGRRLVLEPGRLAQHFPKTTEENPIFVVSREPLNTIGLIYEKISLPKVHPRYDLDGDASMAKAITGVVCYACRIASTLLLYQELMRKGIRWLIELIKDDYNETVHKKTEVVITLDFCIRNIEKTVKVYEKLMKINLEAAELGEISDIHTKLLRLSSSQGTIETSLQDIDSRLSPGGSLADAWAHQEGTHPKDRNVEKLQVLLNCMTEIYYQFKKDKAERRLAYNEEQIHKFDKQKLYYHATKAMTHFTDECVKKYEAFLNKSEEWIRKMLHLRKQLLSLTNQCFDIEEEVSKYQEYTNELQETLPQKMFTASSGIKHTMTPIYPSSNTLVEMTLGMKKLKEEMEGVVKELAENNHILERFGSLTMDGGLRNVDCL
Kind of test: Inhibition of TBK1 Enzyme (Caliper microfluidic assay). The test is classed as biochemical. As to conditions: 25 μM ATP, 60 min at RT; -log(IC50), IC50 molar; read-out: TBK1 Inhibition (pIC50) (converted). The procedure:
Full length human TBK1 with an N-terminal His-tag was cloned into the pFastBacl vector and was transfected into Sf9 cells. 72 hours later the virus was harvested and amplified through two additional rounds of infections. Then 400 ml of the resulting virus stock was used to infect 10L of Sf9 cells at a density of 2×10^6 cells/ml. Cell pellets were harvested 48 hours post infection and were lysed by freeze-thaw, homogenization and sonication in binding buffer (25 mM Tris pH7.6, 1 M NaCl, 10 mM imidazole, 0.5 mM TCEP) plus 0.1% Triton X-100 and complete protease inhibitor cocktail. The lysate was spun and the supernatant was purified with a HisTrap FF crude and a Superdex 200 pg column.
TBK1 inhibition is determined using a 384 well plate format in buffer containing 20 mM Hepes, pH 7.4, 10 mM MgCl2, 1 mM EDTA, 0.01% Brij-L23, 1 mM DTT. Each test compound is prepared in DMSO using 2.5-fold serial dilutions for 11 data points, which are added to the buffer so that each dilution contains 1% DMSO. To each well is added 2 μL of 1 μm 5FAM-DRHDSGLDSMKDE-NH2 (in buffer), 2 μL of diluted test compound (1% DMSO in buffer), and 5 μL of 3 nM TBK1 and 25 μM ATP (in buffer). The reaction mixture is incubated at RT for 60 min, and quenched by adding 20 mM Hepes, pH 7.4, 10 mM MgCl2, 1 mM EDTA, 0.01% Brij-L23, 1 mM DTT+25 mM EDTA. To quantify the fluorescent-labeled substrate and product following reaction, the test plate is loaded on a Caliper LC-3000, which measures percent of conversion by microfluidic-based separation. Corresponding IC50 values are calculated by non-linear curve fitting of the compound concentrations and percent of inhibition to the standard IC50 equation and reported as pIC50, i.e., −log(IC50), where IC50 is the molar concentration.

Another test deals with T2, TBK1 (Homo sapiens, UniProt Q9UHD2).
T2 construct: host or cells: RA1-ISRE beta-lactamase reporter cells
T2 sequence (Q9UHD2 1-729): T1 sequence (Q9UHD2 1-729)
Kind of test: Inhibition of TBK1 in Cells (TLR3 driven ISRE β-lactamase reporter assay). In kind it is cell-based. The following applies: poly IC-LMW stimulation 16 hrs; -log(EC50), EC50 molar; read-out: Inhibition of TBK1 in cells pEC50 (EC) (converted). The procedure:
TBK1 inhibition is determined using a TLR3 driven RA1-ISRE β-lacatamase reporter assay (Life Technologies). In the assay 50,000 cells/well are plated in black clear bottom 384 well plate. Each test compound is prepared in DMSO using 2.5-fold serial dilutions for 11 data points, which are then added to the media. Cells are stimulated with 0.15 mg/ml poly IC-LMW (Invivogen) for 16 hrs. Reporter activity is detected using the LiveBLAzer-FRET B/G CCF4-AM substrate (Life Technologies) and the plate is read using the Spectramax M5 instrument. Corresponding EC50 values are calculated by non-linear curve fitting of the compound concentrations and percent of inhibition to the standard EC50 equation and reported as pEC50, i.e., −log(EC50), where EC50 is the molar concentration.
On the technique in general: Reporter assays use an easily measured gene product as a stand-in for the process of interest.

Regarding `O=C(Nc1cn2cc(-c3csc(C(=O)N4CCC[C@@H]4C(F)(F)F)c3)ccc2n1)C1CC1` [Example 62, (R)-N-(6-(5-(2-(trifluoromethyl)pyrrolidine-1-carbonyl)thiophen-3-yl)imidazo[1,2-a]pyridin-2-yl)cyclopropanecarboxamide], the IC50 at Full length human TBK1 was 0.00398 µM. In addition, at TBK1, the EC50 was 0.0741 µM.

As for `O=C(NCC(O)C(F)(F)F)c1nc(-c2ccc3nc(NC(=O)C4CC4)cn3c2)cs1` (stereo not shown) [Example 115, 4-(2-(cyclopropanecarboxamido)imidazo[1,2-a]pyridin-6-yl)-N-(3,3,3-trifluoro-2-hydroxypropyl)thiazole-2-carboxamide], the IC50 on Full length human TBK1 is 0.0794 µM. Also, the EC50 on TBK1 is 1.51 µM.

For the compound `CC(C)C(NC(=O)c1cc(-c2ccc3nc(NC(=O)C4CC4)cn3c2)cs1)C(F)(F)F` (stereo not shown) [Example 117, 4-(2-(cyclopropanecarboxamido)imidazo[1,2-a]pyridin-6-yl)-N-(1,1,1-trifluoro-3-methylbutan-2-yl)thiophene-2-carboxamide], the IC50 at Full length human TBK1 is 0.0501 µM. The EC50 on TBK1 was 6.46 µM.

Take `O=C(NCC1CC1)c1cc(-c2ccc3nc(NC(=O)C4CC4)cn3c2)cs1` [Example 65]: the IC50 at Full length human TBK1 was 0.02 µM. Moreover, the EC50 at TBK1 was 0.676 µM.

As for `O=C(NCC(F)(F)F)c1ccn(-c2ccc3nc(NC(=O)C4CC4)cn3c2)n1` [Example 34, 1-(2-(cyclopropanecarboxamido)imidazo[1,2-a]pyridin-6-yl)-N-(2,2,2-trifluoroethyl)-1H-pyrazole-3-carboxamide], the IC50 on Full length human TBK1 is 0.02 µM. Further, the EC50 at TBK1 was 0.513 µM.

For `C[C@@H](NC(=O)c1nc(-c2ccc3nc(NC(=O)C4CC4)cn3c2)c[nH]1)C(F)(F)F` [Example 9, 4-{2-cyclopropaneamidoimidazo[1,2-a]pyridin-6-yl}-N-[(2R)-1,1,1-trifluoropropan-2-yl]-1H-imidazole-2-carboxamide], at Full length human TBK1, the IC50 is 0.01 µM. The EC50 on TBK1 is 0.229 µM.

As to `O=C(Nc1cn2cc(-c3csc(C(=O)N4CC(O)C4)n3)ccc2n1)C1CC1` [Example 113, N-(6-(2-(3-hydroxyazetidine-1-carbonyl)thiazol-4-yl)imidazo[1,2-a]pyridin-2-yl)cyclopropanecarboxamide], the IC50 on Full length human TBK1 was 0.126 µM. For the same compound, the EC50 at TBK1 was 2.69 µM.

For the compound `N#CC1CN(C(=O)c2nc(-c3ccc4nc(NC(=O)C5CC5)cn4c3)cs2)C1` [Example 102, N-(6-(2-(3-cyanoazetidine-1-carbonyl)thiazol-4-yl)imidazo[1,2-a]pyridin-2-yl)cyclopropanecarboxamide], the IC50 on Full length human TBK1 was 0.2 µM. Also, on TBK1, the EC50 is 0.776 µM.

`CC(NC(=O)c1cc(-c2ccc3nc(NC(=O)C4CC4)cn3c2)cs1)C(F)(F)F` (stereo not shown) [Example 59, 4-(2-(cyclopropanecarboxamido)imidazo[1,2-a]pyridin-6-yl)-N-(1,1,1-trifluoropropan-2-yl)thiophene-2-carboxamide]: the IC50 at Full length human TBK1 was 0.02 µM. In addition, the EC50 on TBK1 is 0.24 µM.

On to `O=C(NC1CCOCC1)c1cc(-c2ccc3nc(NC(=O)C4CC4)cn3c2)cs1` [Example 66, 4-(2-(cyclopropanecarboxamido)imidazo[1,2-a]pyridin-6-yl)-N-(tetrahydro-2H-pyran-4-yl)thiophene-2-carboxamide], for which, at Full length human TBK1, the IC50 was 0.1 µM. For the same compound, the EC50 on TBK1 was 2.04 µM.

Take `O=C(NCC(F)(F)F)c1cc(-c2ccc3nc(NC(=O)C4CC4)cn3c2)[nH]n1` [Example 51, 5-(2-(cyclopropanecarboxamido)imidazo[1,2-a]pyridin-6-yl)-N-(2,2,2-trifluoroethyl)-1H-pyrazole-3-carboxamide]: the IC50 at Full length human TBK1 was 0.00794 µM. For the same compound, the EC50 at TBK1 was 0.49 µM.

Take `CC(F)(F)CNC(=O)c1cc(-c2ccc3nc(NC(=O)C4CC4)cn3c2)cs1` [Example 57, 4-(2-(cyclopropanecarboxamido)imidazo[1,2-a]pyridin-6-yl)-N-(2,2-difluoropropyl)thiophene-2-carboxamide]: on Full length human TBK1, the IC50 is 0.01 µM. At TBK1, the EC50 was 0.219 µM.

As for `O=C(NCC(F)(F)F)c1cnn(-c2ccc3nc(NC(=O)C4CC4)cn3c2)c1` [Example 40, 1-(2-(cyclopropanecarboxamido)imidazo[1,2-a]pyridin-6-yl)-N-(2,2,2-trifluoroethyl)-1H-pyrazole-4-carboxamide], the IC50 on Full length human TBK1 is 0.0316 µM. Besides, the EC50 on TBK1 was 0.708 µM.

With `Cc1sc(C(=O)NCC(F)(F)F)cc1-c1ccc2nc(NC(=O)C3CC3)cn2c1` [Example 29, 4-(2-(cyclopropanecarboxamido)imidazo[1,2-a]pyridin-6-yl)-5-methyl-N-(2,2,2-trifluoroethyl)thiophene-2-carboxamide], at Full length human TBK1, the IC50 was 0.0398 µM. Further, the EC50 at TBK1 was 6.76 µM.

As for `O=C(Nc1cn2cc(-c3csc(C(=O)N4CCC(O)C4)n3)ccc2n1)C1CC1` (stereo not shown) [Example 112, N-(6-(2-(3-hydroxypyrrolidine-1-carbonyl)thiazol-4-yl)imidazo[1,2-a]pyridin-2-yl)cyclopropanecarboxamide], on Full length human TBK1, the IC50 was 0.0794 µM. In addition, on TBK1, the EC50 is 4.37 µM.

In the case of `O=C(N[C@@H]1CCCOC1)c1cc(-c2ccc3nc(NC(=O)C4CC4)cn3c2)cs1` [Example 69, (R)-4-(2-(cyclopropanecarboxamido)imidazo[1,2-a]pyridin-6-yl)-N-(tetrahydro-2H-pyran-3-yl)thiophene-2-carboxamide], the IC50 at Full length human TBK1 was 0.1 µM. In addition, at TBK1, the EC50 is 2.88 µM.

With `O=C(N[C@H]1COC[C@H]1O)c1nc(-c2ccc3nc(NC(=O)C4CC4)cn3c2)cs1` [Example 108, 4-(2-(cyclopropanecarboxamido)imidazo[1,2-a]pyridin-6-yl)-N-((3S,4S)-4-hydroxytetrahydrofuran-3-yl)thiazole-2-carboxamide], the IC50 at Full length human TBK1 is 0.0794 µM. Also, the EC50 at TBK1 was 4.37 µM.

For the compound `CC1CCCN1C(=O)c1cc(-c2ccc3nc(NC(=O)C4CC4)cn3c2)n[nH]1` (stereo not shown) [Example 123, N-(6-(5-(2-methylpyrrolidine-1-carbonyl)-1H-pyrazol-3-yl)imidazo[1,2-a]pyridin-2-yl)cyclopropanecarboxamide], at Full length human TBK1, the IC50 was 0.1 µM. For the same compound, at TBK1, the EC50 is 2.19 µM.

For `COC1CCN(C(=O)c2nc(-c3ccc4nc(NC(=O)C5CC5)cn4c3)cs2)C1` (stereo not shown) [Example 97, N-(6-(2-(3-methoxypyrrolidine-1-carbonyl)thiazol-4-yl)imidazo[1,2-a]pyridin-2-yl)cyclopropanecarboxamide], on Full length human TBK1, the IC50 is 0.126 µM. For the same compound, the EC50 at TBK1 is 1.55 µM.

For `O=C(Nc1cn2cc(-c3csc(C(=O)N4CCOCC4)c3)ccc2n1)C1CC1` [Example 54, N-{6-[5-(morpholine-4-carbonyl)thiophen-3-yl]imidazo[1,2-a]pyridin-2-yl}cyclopropanecarboxamide], on Full length human TBK1, the IC50 is 0.251 µM. In addition, the EC50 on TBK1 was 20 µM.
